Consider 13 compounds from article PMC7317212 (Chemmedchem, 2020).

Assay [1] deals with T1, mGAT2 (Mus musculus, UniProt P31651).
T1 construct: expressed in transfected cells; host or cells: HEK293
T1 sequence (P31651 1-614): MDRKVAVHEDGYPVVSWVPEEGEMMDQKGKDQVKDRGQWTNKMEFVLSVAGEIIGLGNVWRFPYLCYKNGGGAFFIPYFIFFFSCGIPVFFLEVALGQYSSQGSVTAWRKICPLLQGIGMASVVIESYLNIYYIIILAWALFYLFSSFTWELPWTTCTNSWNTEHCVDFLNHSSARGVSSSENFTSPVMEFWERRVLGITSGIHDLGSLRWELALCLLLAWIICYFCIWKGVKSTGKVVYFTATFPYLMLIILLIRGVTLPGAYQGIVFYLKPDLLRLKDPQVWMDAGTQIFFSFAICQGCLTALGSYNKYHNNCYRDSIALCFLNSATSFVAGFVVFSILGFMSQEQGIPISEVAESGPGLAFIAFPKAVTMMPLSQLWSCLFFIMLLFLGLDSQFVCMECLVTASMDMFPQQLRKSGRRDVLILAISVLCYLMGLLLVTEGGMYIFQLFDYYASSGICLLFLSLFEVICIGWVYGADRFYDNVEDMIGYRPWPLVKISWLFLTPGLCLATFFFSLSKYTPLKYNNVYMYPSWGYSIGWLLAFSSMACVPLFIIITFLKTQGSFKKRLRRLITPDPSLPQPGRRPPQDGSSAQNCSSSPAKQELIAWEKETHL
As to the kind of experiment: [^3H]GABA uptake assay, HEK293 cells expressing mGAT2. The assay is classed as cell-based. To be noted: for IC50: [^3H]GABA uptake, pIC50±SEM; for remaining activity at 100 µM: HEK293, in presence of 100 μM compound. In outline: (§1)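 HEK293 cells expressing mouse GATs preincubated 25 min at 37 °C with compound in Krebs buffer pH 7.2, then [3H]GABA added: 8 nM plus 32 nM unlabeled for 4 min (mGAT1/3/4), 20 nM plus 20 nM for 10 min (mGAT2). Filtration, scintillation counting; nonspecific uptake with 10 mM (mGAT1/3/4) or 100 mM GABA (mGAT2); pIC50.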

For assay [2], the target named is T2, mGAT3 (Mus musculus, UniProt P31649).
T2 construct: expressed in transfected cells; host or cells: HEK293
T2 sequence (P31649 1-602): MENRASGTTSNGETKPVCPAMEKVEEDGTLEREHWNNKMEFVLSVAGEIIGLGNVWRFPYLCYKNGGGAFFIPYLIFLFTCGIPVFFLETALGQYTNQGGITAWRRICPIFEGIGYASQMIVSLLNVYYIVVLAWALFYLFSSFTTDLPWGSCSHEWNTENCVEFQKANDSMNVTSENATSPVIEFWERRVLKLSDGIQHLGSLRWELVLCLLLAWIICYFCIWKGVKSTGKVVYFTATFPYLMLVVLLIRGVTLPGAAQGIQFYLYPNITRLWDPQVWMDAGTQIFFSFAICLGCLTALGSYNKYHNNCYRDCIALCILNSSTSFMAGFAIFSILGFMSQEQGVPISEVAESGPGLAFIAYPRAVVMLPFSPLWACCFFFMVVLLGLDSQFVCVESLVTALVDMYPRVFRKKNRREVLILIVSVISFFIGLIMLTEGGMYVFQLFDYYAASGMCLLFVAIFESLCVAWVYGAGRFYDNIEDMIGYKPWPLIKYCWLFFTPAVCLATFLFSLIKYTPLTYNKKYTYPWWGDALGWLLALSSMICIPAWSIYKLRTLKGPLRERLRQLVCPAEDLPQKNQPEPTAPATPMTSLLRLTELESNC
Kind of assay: [^3H]GABA uptake assay, HEK293 cells expressing mGAT3. In kind it is cell-based. The settings on record: for remaining activity at 100 µM: HEK293, in presence of 100 μM compound; for IC50: [^3H]GABA uptake, pIC50±SEM. Put shortly: as §1

The target in assay [3] is T3, mGAT1 (Mus musculus, UniProt P31648).
T3 construct: expressed in transfected cells; host or cells: HEK293
As to the kind of experiment: MS Binding Assay with NO711 as native MS marker. The settings on record: for remaining activity at 100 µM: in presence of 100 μM compound, read-out: remaining specific NO711 binding (mGAT1). In outline: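 Competitive MS binding using membranes from HEK293 cells stably expressing mGAT1, with 10 nM unlabeled NO711 as marker and compounds at 7 concentrations. Nonspecific binding defined with 100 mM GABA. Bound NO711 eluted after filtration and quantified by LC-ESI-MS/MS against [2H10]NO711; Ki derived.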

Assay [4] concerns the target T3, mGAT1. Kind of assay: [^3H]GABA uptake assay, HEK293 cells expressing mGAT1. The settings on record: for remaining activity at 100 µM: HEK293, in presence of 100 μM compound; for IC50: [^3H]GABA uptake, pIC50±SEM. The assay is classed as cell-based. In outline:
as §1

Assay [5] concerns the target T4, mGAT4 (Mus musculus, UniProt P31650).
T4 construct: expressed in transfected cells; host or cells: HEK293
T4 sequence (P31650 1-627): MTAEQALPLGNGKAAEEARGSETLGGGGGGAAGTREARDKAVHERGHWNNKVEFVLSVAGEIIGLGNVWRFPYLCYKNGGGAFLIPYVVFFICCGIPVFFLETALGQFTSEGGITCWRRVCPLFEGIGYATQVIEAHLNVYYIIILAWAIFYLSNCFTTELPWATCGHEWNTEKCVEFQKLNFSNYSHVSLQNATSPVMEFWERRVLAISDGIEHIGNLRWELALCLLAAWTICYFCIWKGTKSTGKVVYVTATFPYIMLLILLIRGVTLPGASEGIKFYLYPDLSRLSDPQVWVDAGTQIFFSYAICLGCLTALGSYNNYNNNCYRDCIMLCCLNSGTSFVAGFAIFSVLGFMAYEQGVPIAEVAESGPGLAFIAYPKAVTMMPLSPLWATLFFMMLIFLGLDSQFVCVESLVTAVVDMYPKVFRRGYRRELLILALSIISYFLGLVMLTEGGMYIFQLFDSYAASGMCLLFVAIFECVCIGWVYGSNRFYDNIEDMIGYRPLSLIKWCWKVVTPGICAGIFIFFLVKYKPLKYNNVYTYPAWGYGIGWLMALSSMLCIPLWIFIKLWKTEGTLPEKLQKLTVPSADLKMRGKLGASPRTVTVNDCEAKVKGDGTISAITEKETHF
As to the kind of experiment: [^3H]GABA uptake assay, HEK293 cells expressing mGAT4. In kind it is cell-based. To be noted: for IC50: [^3H]GABA uptake, pIC50±SEM; for remaining activity at 100 µM: HEK293, in presence of 100 μM compound. Put shortly:
as §1

SMILES strings stand for the structures.

For `CCOC(=O)C1CCCN(CCOC(c2ccc(COC)cc2)(c2ccc(COC)cc2)c2ccc(OC)cc2)C1` (racemic) [12 h, rac‐ Ethyl 1‐(2‐{bis[4‐(methoxymethyl)phenyl][4‐methoxyphenyl]‐methoxy}ethyl)piperidine‐3‐carboxylate], the IC50 – broadly, the concentration needed to halve the response being measured – was 50.1 µM in assay [1] and 89.1 µM in assay [5]. Further, the remaining activity at 100 µM was determined as 50.6% in assay [2], 72.9% in assay [3] and 64.9% in assay [4].
Regarding `COc1ccc(C(OCCN2CCCC(C(=O)O)C2)(c2ccc(OC)cc2)c2ccc(C(=O)O)cc2)cc1` (racemic) [5 e, rac ‐1‐{2‐[(4‐Carboxyphenyl)bis(4‐methoxyphenyl)methoxy]ethyl}piper‐idine‐3‐carboxylic acid], the remaining activity at 100 µM in assay [1] was 85.2%; in assay [3] it was 71.4%; in assay [4], 96.5%. For the same compound, the IC50 in assay [2] is 57.5 µM; in assay [5] it was 13.8 µM.
On to `COc1ccc(C(OCCN2CCCC(C(=O)O)C2)(c2ccc(CN3CCCC3=O)cc2)c2ccc(OC)cc2)cc1` (racemic) [5 r, rac‐ 1‐[2‐(Bis{4‐methoxyphenyl}{4‐[(2‐oxopyrrolidin‐1‐yl)methyl]phenyl}‐methoxy)ethyl]piperidine‐3‐carboxylic acid], for which the remaining activity at 100 µM in assay [1] was found to be 79.7%; in assay [2], 64.2%; in assay [3], 97%; in assay [4], 76%. The same compound had a 50% inhibitory concentration (IC50) in assay [5] of 64.6 µM.
`CCOC(=O)C1CCCN(CCOC(C(=O)OC)(c2ccc(OC)cc2)c2ccc(OC)cc2)C1` (racemic) [12 k, rac‐ Ethyl 1‐{2‐[2‐methoxy‐1,1‐bis(4‐methoxyphenyl)‐2‐oxoethoxy]ethyl}‐piperidine‐3‐carboxylate]: the remaining activity at 100 µM in assay [1] stood at 92.6%; in assay [2], 64.1%; in assay [3], 90.8%; in assay [4], 89.1%; in assay [5], 78.2%.
`COc1ccc(C(OCCN2CCC[C@@H](C(=O)O)C2)(c2ccc(C=O)cc2)c2ccc(OC)cc2)cc1` [(R)‐5 a]: the remaining activity at 100 µM in assay [1] came to 50.1%. In addition, the IC50 in assay [2] was 33.9 µM; in assay [4], 35.5 µM; in assay [5], 13.8 µM. Besides, the Ki in assay [3] (MS Binding Assay, NO711 marker, pKi±SEM, read-out: pK i mGAT1 (converted)) was 12.3 µM.
With `CCOC(=O)CCNCc1ccc(C(OCCN2CCCC(C(=O)OCC)C2)(c2ccc(OC)cc2)c2ccc(OC)cc2)cc1` (racemic) [12 o, rac ‐Ethyl 1‐{2‐[(4‐{[(3‐ethoxy‐3‐oxopropyl)amino]methyl}phenyl)bis(4‐methoxyphenyl)methoxy]ethyl}piperidine‐3‐carboxylate], the IC50 in assay [1] is 19.1 µM; in assay [2], 23.4 µM; in assay [4] it was 25.7 µM; in assay [5], 21.9 µM. The remaining activity at 100 µM in assay [3] was determined as 72.4%.
`CCOC(=O)C1CCCN(CCOC(c2ccc(COC)cc2)(c2ccc(COC)cc2)c2ccc(COC)cc2)C1` (racemic) [12 i, rac‐ Ethyl 1‐(2‐{tris[4‐(methoxymethyl)phenyl]methoxy}ethyl)piperidine‐3‐carboxylate]: the remaining activity at 100 µM in assay [1] was 65%; in assay [3], 87.5%; in assay [4] it was 70.3%; in assay [5] it was 51.4%. Further, the IC50 in assay [2] is 95.5 µM.
With `COc1ccc(C(OCCN2CCC[C@H](C(=O)O)C2)(c2ccc(C=O)cc2)c2ccc(OC)cc2)cc1` [(S)‐5 a, (S)‐1‐{2‐[(4‐Formylphenyl)bis(4‐methoxyphenyl)methoxy]ethyl}piper‐idine‐3‐carboxylic acid], the remaining activity at 100 µM in assay [1] turned out to be 72.6%; in assay [3], 77.4%. The IC50 in assay [2] is 6.92 µM; in assay [4], 72.4 µM; in assay [5], 1.29 µM.
Take `CCOC(=O)C1CCCN(CCOC(c2ccc(CNCCCC(=O)O)cc2)(c2ccc(OC)cc2)c2ccc(OC)cc2)C1` (racemic) [12 s, rac ‐4‐{[4‐({2‐[3‐(Ethoxycarbonyl)piperidin‐1‐yl]ethoxy}bis{4‐methoxy‐phenyl}methyl)benzyl]amino}butanoic acid]: the remaining activity at 100 µM in assay [1] was 76.7%; in assay [2], 59.3%; in assay [3] it was 84.9%; in assay [4], 52.4%; in assay [5], 67.6%.
Take `COc1ccc(C(OCCN2CCCC(C(=O)O)C2)(c2ccc(OC)cc2)c2ccc(S(=O)(=O)N(C)C)cc2)cc1` (racemic) [5 c, rac ‐1‐(2‐{[4‐(N,N‐dimethylsulfamoyl)phenyl]bis[4‐methoxyphenyl]‐methoxy}ethyl)piperidine‐3‐carboxylic acid]: the remaining activity at 100 µM in assay [1] amounted to 78%; in assay [2], 77.1%; in assay [3], 62.1%; in assay [4], 67.9%; in assay [5] it was 82%. This compound also gave an IC50 in assay [5] above 100 µM.
Turning to `CCOC(=O)C1CCCN(CCOC(c2ccc(CO)cc2)(c2ccc(OC)cc2)c2ccc(OC)cc2)C1` (racemic) [12 m, rac ‐Ethyl 1‐(2‐{[4‐(hydroxymethyl)phenyl]bis[4‐methoxyphenyl]methoxy}‐ethyl)piperidine‐3‐carboxylate], the remaining activity at 100 µM is 49.3% in assay [1], 75.3% in assay [3] and 50.4% in assay [4]. Also, the figures for the IC50 in assay [2] and in assay [5] were 35.5 µM and 58.9 µM, respectively.
Turning to `COCc1ccc(C(OCCN2CCCC(C(=O)O)C2)(c2ccc(COC)cc2)c2ccc(OC)cc2)cc1` (racemic) [5 h, rac‐ 1‐(2‐{Bis[4‐(methoxymethyl)phenyl][4‐methoxyphenyl]methoxy}‐ethyl)piperidine‐3‐carboxylic acid], the remaining activity at 100 µM is 55.2% in assay [1], 52.2% in assay [2], 74.1% in assay [3] and 70.5% in assay [4]. Further, in assay [5], the IC50 was 17 µM.
With `CCOC(=O)C1CCCN(CCOC(c2ccc(C#N)cc2)(c2ccc(OC)cc2)c2ccc(OC)cc2)C1` (racemic) [12 g, rac‐ Ethyl 1‐{2‐[(4‐cyanophenyl)bis(4‐methoxyphenyl)methoxy]ethyl}‐piperidine‐3‐carboxylate], the remaining activity at 100 µM in assay [1] came out at 80.7%; in assay [2], 63.6%; in assay [3] it was 97.6%; in assay [4] it was 76.6%; in assay [5], 71.9%.
